{"source": "patent US20220193076A1", "about": "“METHODS OF TREATING BREAST CANCER WITH TUCATINIB” (Seagen Inc., priority 2019, published 2022)", "key": {"UGT1A1": {"biological_target": "T1, UGT1A1 (Homo sapiens, UniProt P22309)", "T1 construct": "tissue BioreclamationIVT (Baltimore, Md.); host or cells: pooled human liver microsomes, 150 donors", "T1 sequence (P22309 26-533)": "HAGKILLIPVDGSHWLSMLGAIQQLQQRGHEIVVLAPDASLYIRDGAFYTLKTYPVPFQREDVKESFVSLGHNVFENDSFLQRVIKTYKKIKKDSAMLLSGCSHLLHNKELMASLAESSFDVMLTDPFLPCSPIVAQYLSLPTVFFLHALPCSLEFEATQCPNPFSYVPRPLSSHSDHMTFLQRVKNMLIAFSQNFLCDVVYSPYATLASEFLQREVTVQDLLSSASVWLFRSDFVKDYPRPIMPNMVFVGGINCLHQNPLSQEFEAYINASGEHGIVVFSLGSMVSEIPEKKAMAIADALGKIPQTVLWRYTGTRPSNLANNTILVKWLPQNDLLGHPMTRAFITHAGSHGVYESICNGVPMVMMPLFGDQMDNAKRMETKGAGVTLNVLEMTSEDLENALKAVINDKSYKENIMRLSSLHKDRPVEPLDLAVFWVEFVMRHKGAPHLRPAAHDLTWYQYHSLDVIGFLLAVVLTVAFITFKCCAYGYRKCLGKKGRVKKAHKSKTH", "assay": "Ki determination in pooled human liver microsomes, β-estradiol 3-glucuronidation (Example 5)", "type": "in vitro ADME", "description": "The objective of this study was to evaluate in vitro the Ki of tucatinib of the following human hepatic cytochrome P450 (CYP) enzymes (CYP2C8, CYP2C9, and CYP3A4) and UGT1A1. […] Pooled human liver microsomes (HLM) from 150 individuals (79 males and 71 females) were obtained from BioreclamationIVT (Baltimore, Md.) and stored at approximately −70° C. The microsomes were characterized by the supplier for total protein and selected cytochrome P450 activities. […] The final organic solvent contribution was ≤1%. Incubations were terminated by the addition of chilled acetonitrile containing a stable isotope-labeled internal standard. […] Samples were analyzed by liquid chromatography with tandem mass spectrometry (LC-MS/MS). Analyte concentrations were quantified by LC-MS/MS and interpolated from standard curves of authentic analyte. […] Activities were calculated based on analyte concentration, incubation time, and protein concentration. Enzymatic activity (pmol/minute/mg protein) was expressed as the formation of the analyte per final protein concentration per incubation time. Activity remaining was expressed as the enzymatic activity at each concentration point of the test article normalized by the solvent control mean activity. […]"}, "CYP2C8": {"biological_target": "T2, CYP2C8 (Homo sapiens, UniProt P10632)", "T2 sequence (P10632 1-490)": "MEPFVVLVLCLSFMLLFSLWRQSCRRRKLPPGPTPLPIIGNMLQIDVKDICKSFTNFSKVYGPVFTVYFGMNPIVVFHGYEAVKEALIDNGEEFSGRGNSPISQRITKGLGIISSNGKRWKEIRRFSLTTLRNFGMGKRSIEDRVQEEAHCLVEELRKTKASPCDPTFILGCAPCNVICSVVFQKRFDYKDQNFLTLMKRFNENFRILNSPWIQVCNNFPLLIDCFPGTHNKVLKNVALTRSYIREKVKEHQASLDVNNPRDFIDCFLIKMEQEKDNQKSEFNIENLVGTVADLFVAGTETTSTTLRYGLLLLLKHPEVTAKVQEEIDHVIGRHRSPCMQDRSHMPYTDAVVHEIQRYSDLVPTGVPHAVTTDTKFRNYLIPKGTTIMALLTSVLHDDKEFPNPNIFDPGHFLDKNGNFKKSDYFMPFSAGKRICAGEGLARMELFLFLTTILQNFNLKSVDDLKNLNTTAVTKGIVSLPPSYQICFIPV", "assay": "Example 2 Part C: effect of strong CYP2C8 inhibitor gemfibrozil on PK of tucatinib", "type": "in vivo", "set-up": "endogenous in cells; host or cells: healthy human subjects, in vivo", "conditions": "tucatinib 300 mg single dose in combination with gemfibrozil vs tucatinib alone", "description": "From Day 3 to Day 8, each subject received single oral doses of 600 mg of gemfibrozil (BID), twice daily (BID). On Day 7, each subject received a single oral dose of 300 mg of tucatinib. […] Other noncompartmental PK parameters may be reported. Additionally, blood samples were collected for determination of trough levels of gemfibrozil prior to morning dosing on the days indicated in FIG. 7."}}, "data": [{"smiles": "Cc1cc(Nc2ncnc3ccc(NC4=NC(C)(C)CO4)cc23)ccc1Oc1ccn2ncnc2c1", "note": "[tucatinib]", "values": [{"measurement": "Inhibition mechanism, UGT1A1", "setting": "UGT1A1", "value": "competitive inhibition"}, {"measurement": "Ki", "setting": "UGT1A1; marker substrate β-estradiol", "value": 1810, "unit": "nM"}, {"measurement": "Geometric LS mean ratio (90% CI), AUC0-∞", "setting": "CYP2C8", "value": "3.04 (2.66, 3.46)"}, {"measurement": "Geometric LS mean ratio (90% CI), AUClast", "setting": "CYP2C8", "value": "2.99 (2.62, 3.41)"}, {"measurement": "Geometric LS mean ratio (90% CI), Cmax", "setting": "CYP2C8", "value": "1.62 (1.47, 1.79)"}]}]}
